Measurements taken from PMC8179539, “Query-guided protein–protein interaction inhibitor discovery” (Chemical Science, 2021).
Several values for one entry are separate records, joined by “and”; a condition that tells them apart may be missing. Equal values may be shown once. Read-outs that look alike come from different tables or passages of the source.

How the values were obtained:
[1] = molecular target: p53/hDM2 (Homo sapiens, UniProt Q00987); assay: competition fluorescence anisotropy assay, displacement of p53 15-31 Flu from hDM2; assay type: binding; conditions: for ligand efficiency: LE = 1.4 × pIC50/nHA, from p53/hDM2 fluorescence anisotropy IC50
[2] = molecular target: T1, GKAP/SHANK1-PDZ (Homo sapiens, UniProt Q9Y566); assay: fluorescence anisotropy competition assay GKAP/SHANK1-PDZ; assay type: binding; conditions: for IC50: FITC-GKAP 50 nM, SHANK1-PDZ 1 μM, pH 7.4, 20 mM Tris, 150 mM NaCl, 0.01% Triton-X-100
T1 construct: Shank 1 PDZ domain (656-762) was expressed and purified as described; made in house
T1 sequence (Q9Y566 656-762): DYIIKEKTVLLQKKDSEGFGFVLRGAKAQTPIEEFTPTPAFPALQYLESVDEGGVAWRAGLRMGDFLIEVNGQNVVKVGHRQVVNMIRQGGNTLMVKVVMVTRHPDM

[3] = molecular target: SHANK1-PDZ (Homo sapiens, UniProt Q9Y566); assay: biochemical
[4] = molecular target: BID/MCL-1 (Homo sapiens, UniProt Q07820); conditions: 200 nM MCL-1, 50 nM FITC-Ahx-NOXA-B tracer (Fig. S10)
[5] = Table S2, SAR competition assays, Plate Reader II, * lower anisotropy observed, attributed to solubility causing assay interference (7a, 7b, 7c), read-out: IC50
[6] = Table S2, SAR competition assays, Plate Reader II, read-out: IC50
[7] = Fig. 4b, same assay, unit inferred, † non-specific interactions observed (11c), read-out: IC50 (Fig. 4b, numbers inside wedges)
[8] = fluorescence anisotropy competition, 150 nM hDM2, 25 nM p53 15-31 Flu, 40 mM phosphate pH 7.4, 200 mM NaCl, 0.02 mg/ml BSA, read-out: IC50
[9] = Fig. 4b, fluorescence anisotropy competition: 150 nM hDM2 and p53 15-31 Flu, 40 mM phosphate, pH 7.4, 200 mM NaCl, 0.02 mg/ml BSA, > 150 μM, read-out: IC50 (Fig. 4b)

Row | Compound | IC50 [1, 5] | IC50 [1, 6] | IC50 [1, 8] | other results
1 | O=C(CC(c1ccc(Cl)s1)c1c[nH]c2ccc(Cl)cc12)NC1CC1c1ccccc1 (stereo not drawn) [7a] | 1.2 ± 1 µM | – | – | –
2 | O=C(CC(c1ccccc1)c1c[nH]c2ccc(Cl)cc12)NCCc1ccccc1 (stereo not drawn) [9b] | > 200 µM | – | – | –
3 | CC(C(=O)NCCc1ccccn1)C(c1ccc(Cl)s1)c1c[nH]c2ccc(Cl)cc12 (stereo not drawn) [syn-10] | – | 21 ± 14 µM | – | –
4 | O=C(CC(c1ccc(Cl)s1)c1c[nH]c2cc(Cl)ccc12)NCCc1ccccn1 (stereo not drawn) [8a] | 10 ± 2 µM | – | 6 µM | –
5 | O=C(CC(c1ccc(Cl)s1)c1c(C(=O)O)[nH]c2ccc(Cl)cc12)NC1CC1c1ccccc1 (stereo not drawn) [compound 14] | – | 2.2 ± 0.5 µM | 2.2 µM | IC50 [1, 9]: 2 µM
6 | O=C(CC(c1ccc(Cl)s1)c1c[nH]c2ccc(Cl)cc12)NCc1ccccc1 (stereo not drawn) [7c] | 5 ± 2 µM | – | – | p53/hDM2 inhibitory activity in words (SAR) ([1]; competition anisotropy, SAR discussion): loss of activity
7 | O=C(CC(c1ccc(Cl)s1)c1c[nH]c2cc(Cl)ccc12)NCCc1ccccc1 (stereo not drawn) [8b] | 18 ± 11 µM | – | – | –
8 | O=C(CC(c1ccccc1)c1c[nH]c2ccc(Cl)cc12)NCCc1ccccn1 (stereo not drawn) [9a] | > 200 µM | – | – | –
9 | CC(C(=O)NCCc1ccccn1)C(c1ccc(Cl)s1)c1c[nH]c2ccc(Cl)cc12 (stereo not drawn) [anti-10] | – | 3.1 ± 0.4 µM | 3.1 µM | ligand efficiency [1]: 0.26
10 | CC(C(=O)NCCc1ccccn1)C(c1ccc(Cl)s1)c1c[nH]c2ccc(Cl)cc12 (single isomer, unassigned; (-)) [(−)-anti-10] | – | 4.6 ± 0.6 µM | 4.6 µM | –
11 | NS(=O)(=O)c1ccc2c(c1)[C@@H]1C=CC[C@@H]1[C@H](C(=O)O)N2 [Z-1] | – | – | – | IC50 [2]: 390 µM; ligand efficiency (LE) ([2]; from GKAP/SHANK1-PDZ fluorescence anisotropy IC50): 0.24
12 | COCCNC(=O)CC(c1ccc(Cl)s1)c1c[nH]c2cc(Cl)ccc12 (stereo not drawn) [8c] | 86 ± 29 µM | – | – | –
13 | CC(C(=O)N1CCC(c2ccccn2)C1)C(c1ccc(Cl)s1)c1c[nH]c2cc(Cl)ccc12 (stereo not drawn) [compound 13] | – | 1.2 ± 0.4 µM | 1.2 µM | IC50 [1, 9]: 1 µM
14 | CC(C(=O)NCCc1ccccn1)C(c1ccc(Cl)s1)c1c[nH]c2ccc(Cl)cc12 (single isomer, unassigned; (+)) [(+)-anti-10] | – | 2.9 ± 0.4 µM | 2.9 µM | –
15 | O=C(O)c1ccc([N+](=O)[O-])c2c1NC(C(=O)O)[C@H]1CC=C[C@@H]21 (stereo partly drawn) [Z-2, reference compound] | – | – | – | IC50 [2]: ~110 µM
16 | COCCNC(=O)CC(c1ccc(Cl)s1)c1c[nH]c2ccc(Cl)cc12 (stereo not drawn) [7d] | > 200 µM | – | – | –
17 | CC(C)(C(=O)NCCc1ccccn1)C(c1ccc(Cl)s1)c1c[nH]c2ccc(Cl)cc12 (stereo not drawn) [compound 12] | – | 8 ± 4 µM | ~8 µM | IC50 [1, 9]: 8 µM
18 | O=C(CC(c1ccc(Cl)s1)c1c[nH]c2ccc(Cl)cc12)NCCc1ccccc1 (stereo not drawn) [7b] | 13 ± 2 µM | – | – | –
19 | Ac-EAQTRF-OH [L6F GKAP, Ac-Glu-Ala-Gln-Thr-Arg-Phe-CO2H] | – | – | – | Kd [3]: 5 µM
20 | O=C(CC(c1ccc(Cl)s1)c1c[nH]c2ccc(Cl)cc12)NCCc1ccccn1 (stereo not drawn) [A1] | 7.9 ± 0.9 µM | – | 7.9 µM and 8 µM | inhibition in FA competition assay for BID/MCL-1 [4]: no inhibition; IC50 [1, 7]: 8 µM; ligand efficiency [1]: 0.24
21 | COCCNC(=O)CC(c1ccccc1)c1c[nH]c2ccc(Cl)cc12 (stereo not drawn) [9d] | > 200 µM | – | – | –

More lines, main results first:

Row | IC50 [1, 5] | IC50 [1, 6] | IC50 [1, 8] | Compound | other results
22 | – | 14 ± 2 µM | – | O=C(O)CCNC(=O)c1[nH]c2ccc(Cl)cc2c1C(CC(=O)NCCc1ccccn1)c1ccc(Cl)s1 (stereo not drawn) [11e] | –
23 | – | 2.9 ± 0.2 µM | – | O=C(CC(c1ccc(Cl)s1)c1c(C(=O)O)[nH]c2ccc(Cl)cc12)NCCc1ccccn1 (stereo not drawn) [11b] | IC50 [1, 7]: 3 µM; ligand efficiency [1]: 0.26
24 | – | 1.7 ± 0.2 µM | 1 µM | O=C(CC(c1ccc(Cl)s1)c1c(Br)[nH]c2cc(Cl)ccc12)NCCc1ccccn1 (stereo not drawn) [11a] | IC50 [1, 7]: 2 µM; ligand efficiency [1]: 0.28
25 | – | > 200 µM | – | CC(C)(C)OC(=O)NCCNC(=O)c1[nH]c2ccc(Cl)cc2c1C(CC(=O)NCCc1ccccn1)c1ccc(Cl)s1 (stereo not drawn) [11g] | –
26 | – | 3.2 ± 0.7 µM | – | CCOC(=O)CCNC(=O)c1[nH]c2ccc(Cl)cc2c1C(CC(=O)NCCc1ccccn1)c1ccc(Cl)s1 (stereo not drawn) [11c] | IC50 [1, 7]: 3 µM
27 | – | > 200 µM | – | CC(C)CNC(=O)c1[nH]c2ccc(Cl)cc2c1C(CC(=O)NCCc1ccccn1)c1ccc(Cl)s1 (stereo not drawn) [11i] | –
28 | – | > 200 µM | – | O=C(CC(c1ccc(Cl)s1)c1c(C(=O)NCc2ccccc2)[nH]c2ccc(Cl)cc12)NCCc1ccccn1 (stereo not drawn) [11h] | –
29 | – | 25 ± 4 µM | 25 µM | NCCNC(=O)c1[nH]c2ccc(Cl)cc2c1C(CC(=O)NCCc1ccccn1)c1ccc(Cl)s1 (stereo not drawn) [11f] | –
30 | – | 12 ± 9 µM | – | O=C(CC(c1ccc(Cl)s1)c1c(Br)[nH]c2ccc(Cl)cc12)NCCc1ccccn1 (stereo not drawn) [11d] | –
